Experimental findings from patent publication US12029728B2, “Small molecules with anti-protozoan activity” (New Mexico Tech University Research Park Corporation, priority 2018, dated 2024) are described below.

For assay [1], the system named is T. cruzi amastigotes and trypomastigotes. The experiment in a line: Viability of tdTomato T. cruzi amastigotes and trypomastigotes, fluorescence. The assay is classed as cell-based, Trypanosoma cruzi. The following applies: 25 μM, 48 hours at 37° C. The protocol: The viability of a mixture of T. cruzi amastigotes and trypomastigotes after exposure to 25 μM of the compounds of the disclosure was determined. 2×10^5 parasites/100 μL were plated in 96-well plates. Parasites expressing tdTomato were used to assess parasite viability using fluorescence measurements. Parasites were incubated with 25 μM of the compounds of the disclosure for 48 hours at 37° C. After the incubation period, the viability of amastigotes and trypomastigotes was assessed by measuring the fluorescence intensity at 510 nm-590 nm using a Tecan plate reader, where the presence of fluorescence indicated viable amastigotes/trypomastigotes.

Assay [2] relates to L. major-infected PBMC cells. The assay can be described thus: L. major-infected PBMC cells, Hoechst micrographs. The assay is classed as cell-based, Leishmania major. The following applies: 40 μM. As to the method: Human peripheral blood mononuclear cells (PBMC) were plated onto polylysine-coated glass slides in 24-well plates and allowed to differentiate towards monocyte-derived macrophages (MDMs). Non-adherent cells were removed 48-hours post plating. Adherent monocytes were left to further differentiate for another 48 hours to MDMs. Following the completion of the differentiation period, MDMs were treated with vehicle control (DMSO), […], […], Compound 4, Compound 6, Compound 7, Compound 8, Compound 9, Compound 10, […]

The subject of assay [3] is T. cruzi-infected ARPE cells. The experiment in a line: Treatment of T. cruzi-infected ARPE cells, imaging. The format is cell-based, Trypanosoma cruzi. Particulars: for amastigotes in ARPE cultures: 5 days, EVOS imaging; for T. cruzi seen in EVOS image: day 12. The protocol: Four confocal dishes were prepared with 10,000 ARPE cells, which were adhered overnight at 37° C. The four dishes were ARPE control cells, non-infected but 5 μM Compound 2-treated cells, non-treated but infected cells, and infected cells treated with 5 μM Compound 2. For the infected dishes, ARPE media was removed and replaced with 2 mL of infectious amastigotes and trypomastigotes from the ARPE passaged plate. The dishes were then incubated for 2 hours at 37° C. The treated dishes were incubated with 5 μM Compound 2 for 5 days at 37° C., while untreated dishes were incubated in fresh media without Compound 2 for 5 days at 37° C. After the 5-day period, cells were washed 3 times in ARPE media and fixed with 1 mL 4% paraformaldehyde. Cells were visualized using an EVOS cell imaging system. Amastigotes appeared as small, dense, and mostly birefringent in images.
The experiment above was repeated using 1 μM Compound 2.
Four confocal dishes with 10,000 ARPE cells were prepared and adhered overnight at 37° C. The four dishes were: 1) ARPE control cells; 2) non-infected cells treated with 1 μM Compound 2; 3) untreated infected cells; and 4) T. cruzi-infected cells treated with 1 μM Compound 2. For the infected dishes, ARPE media was removed and replaced with 2 mL of infectious amastigotes and trypomastigotes expressing tdTomato (from ARPE passaged plate). The dishes were then incubated overnight for 7 days at 37° C. The untreated dishes were incubated in fresh media without Compound 2 for 7 days at 37° C. After the 7-day incubation period, cells were washed 3 times in ARPE media and fixed with 1 mL 4% paraformaldehyde. tdTomato fluorescence, which is indicative of viable T. cruzi, was then observed via fluorescence microscopy.
ARPE cells were plated in confocal dishes (20,000 cells per dish) and incubated overnight at 37° C. Cells were infected with T. cruzi by incubating cells with T. cruzi amastigotes and trypomastigotes expressing tdTomato (˜2×10^5 cells in total) for 24 hours at 37° C. Uninfected cells served as controls. Following the T. cruzi incubation period, extracellular parasites were removed, and the medium was replaced with DMEM/F12 culture media with or without 1 μM Compound 2. The cells were incubated further for 24 hours at 37° C. Cells were then treated two more times with fresh DMEM/F12 culture media with or without 1 μM Compound 2 and incubated for 24 hours at 37° C. Following fixation of cells in 4% paraformaldehyde, plates were imaged for tdTomato fluorescence, which is indicative of viable T. cruzi, such that the effects of repeated Compound 2 treatment could be compared to a single treatment with Compound 2.
ARPE cells were plated in confocal dishes (20,000 cells per dish) and incubated overnight at 37° C. Cells were infected with T. cruzi by incubating cells with T. cruzi amastigotes and trypomastigotes expressing tdTomato (˜2×10^5 cells in total) for 24 hours at 37° C. before washing dishes three times with DMEM/F12 culture media. Uninfected plates served as controls. The dishes were then treated with 2 μM Compound 2 or left untreated as a control and incubated further for 5 days at 37° C. The treated dish received a single treatment of Compound 2 on day 1. Dishes were washed twice with DMEM/F12 media and fixed in 4% paraformaldehyde before being imaged using confocal microscopy. […] The other Compound 2 dishes that were not incubated with T. cruzi a second time were used as controls. Following fixation of cells in 4% paraformaldehyde, tdTomato fluorescence of the cells was assessed using confocal microscopy.
ARPE cells were plated in confocal dishes (20,000 cells per dish) and incubated overnight at 37° C. Dishes were incubated with T. cruzi amastigotes and trypomastigotes expressing tdTomato (˜2×10^5 cells) for 48 hours at 37° C. Untreated cells served as controls. Cells were then washed 3 times with cell medium, treated with 5 μM Compound 2 or left untreated as a control and incubated further for 2 days at 37° C. […]

The subject of a further assay is U87 cells. The experiment in a line: MTT cell survival assay, U87. The format is cell-based. Particulars: Homo sapiens, U-87 MG, 48 hours at 37° C., read-out: IC50 (GI50), cell survival. As to the method: (§1) The GI50 (IC50), the concentration at which 50% cell survival is seen upon treatment with a compound, was determined for Compound 2 in Jurkat, U87, HeLa, and ARPE cells. Cells were cultured in 96-well plates and incubated with 50 μM, 25 μM, 12.5 μM, 6 μM, 3 μM, 1.5 μM, or 0 μM of Compound 2 for 48 hours at 37° C. Following the incubation period, a 3-(4,5-dimethylthiazol-2-yl)-2,5-diphenyl tetrazolium bromide (MTT) assay was performed. In brief, a 10% volume of MTT was added to each well. Cells were incubated with MTT for 2 hours, at which time cell supernatant was removed and cells were taken into 100 μL DMSO. The absorbance of cell solutions was then read at 595 nm. A decrease in absorbance indicated a decrease in cell survival.

The subject of another assay is HeLa cells. The experiment in a line: MTT cell survival assay, HeLa. The assay is classed as cell-based. Particulars: Homo sapiens, 48 hours at 37° C., read-out: IC50 (GI50), cell survival. The protocol: as §1

Consider `O=C(NO)C(c1ccccc1)c1c(-c2ccc3ccccc3c2)[nH]c2ccccc12` (centres unmarked) [Compound 2, N-hydroxy-2-(2-(naphthalen-2-yl)-1H-indol-3-yl)-2-phenylacetamide], for which the “toxicity to T. cruzi amastigotes and trypomastigotes” value in assay [1] is recorded as “most toxic”. Also, in assay [2], the “number of parasites/PBMC cell” value is on record as “decreases the number of parasites/PBMC cell”. Further, the “amastigotes in ARPE cultures” value in assay [3] (1 μM) and in assay [3] (5 μM) was “absent” throughout. In assay [3] (1 μM, 7 days, tdTomato fluorescence), the “intracellular T. cruzi parasites” value is reported as “eradicated”. In addition, the “eradication of intracellular T. cruzi and reinfection” value in assay [3] (2 μM, second incubation with T. cruzi) is “eradicated intracellular T. cruzi and protected cells from reinfection”. For the same compound, in assay [3] (2 μM, two days), the “T. cruzi in ARPE cells (CherryTomato fluorescence)” value is listed as “eradicated T. cruzi”. For the same compound, the “T. cruzi seen in EVOS image” value is on record as “Small amounts of T. cruzi dots were observed” in assay [3] (5 μM for 2 days) and “could not be seen” in assay [3] (10 μM for 2 days). For the same compound, in assay [3] (5 μM, 2 days, after 48 hours infection), the intracellular parasites entry is given as “killed intracellular parasites”. Also, in assay [3] (4 treatments with 2 μM over 4 days), the “state of infected ARPE cells after treatment” value is “cured”. In assay [3] (5 (μM) for 2 days, day 17), the “T. cruzi-infected cell foci in fluorescence images” value is reported as “Only two T. cruzi-infected cell foci were found”. In addition, the tdTomato fluorescence entry in assay [3] (10 (μM) for 2 days, day 17) is on record as “no tdTomato fluorescence was observed”. Besides, in assay [3] (daily 2 μM for 5 days, then 5 days without treatment), the “long term treatment efficacy against T. cruzi infection” value was “long-term full cure”. Further, in assay [3] (one treatment with 2 μM, 5-day incubation), the parasite death entry was “full parasite death”. In addition, the “T. cruzi infection after treatment” value in assay [3] (repeated treatment (three times) with 1 μM, every 24 hours) is listed as “eradicated the T. cruzi infection”; in assay [3] (single treatment with 1 μM), “only a small portion of the T. cruzi infection remaining”. Also, the “intracellular T. cruzi and re-infection” value in assay [3] (single dose of 2 μM, 2 days) was “killed intracellular T. cruzi and protected the cells from re-infection”. In addition, the IC50 with U87 cells came to 11.5 ± 0.41 µM; in the assay on HeLa cells it was 13.7 ± 0.75 µM.
